Key:
Format in all cases: cell-based, human
Conditions in all cases: HT29 cell line (colon tumor), compound 10 μM, 24 hours, vs control
Gene 11 = assay: Gene modulating activity in colon cancer cells (RT-PCR RNA expression), Gene 11
Procedure: (§1) In such assays, primary cells, or tissue samples, are maintained in growth medium and are treated with compounds at a single concentration (10 μM for the data of Table 1) or at a range of concentrations (such as from 1 μM up to 100 μM). At specific times after treatment at the given concentration of test compound, cellular RNAs are isolated from the treated cells, primary cells or tumors, which RNAs are indicative of expression of selected genes, including, but not limited to, the genes used herein. The cellular RNA is then divided and subjected to analysis that detects the presence and/or quantity of specific RNA transcripts, which transcripts may then be amplified for detection purposes using standard methodologies, such as, for example, reverse transcriptase polymerase chain reaction (RT-PCR), etc. The presence or absence, or levels, of specific RNA transcripts are determined from these measurements and a metric derived for the type and degree of response of the sample to the treated compound compared to control samples. One such procedure is shown in example 8 where test compound may or may not be present.
(§2) HT29 cells are grown to a density of 10^5 cells/cm^2 in Leibovitz's L-15 medium supplemented with 2 mM L-glutamine (90%) and 10% fetal bovine serum. The cells are collected after treatment with 0.25% trypsin, 0.02% EDTA at 37° C. for 2 to 5 minutes. The trypsinized cells are then diluted with 30 ml growth medium and plated at a density of 50,000 cells per well in a 96 well plate (200 μl/well). The following day, cells are treated with either compound buffer alone, or compound buffer containing a chemical agent to be tested, for 24 hours. The media is then removed, the cells lysed and the RNA recovered using the RNAeasy reagents and protocol obtained from Qiagen. […] Reverse transcription is then carried out at 48° C. for 30 minutes. The sample is then applied to a Perlin Elmer 7700 sequence detector and heat denatured for 10 minutes at 95° C. Amplification is performed through 40 cycles using 15 seconds annealing at 60° C. followed by a 60 second extension at 72° C. and 30 second denaturation at 95° C. Data files are then captured and the data analyzed with the appropriate baseline windows and thresholds.
(§3) For testing of the effects of a compound of Table 1, each compound was present at a concentration of 10 μM in the culture medium.
The quantitative difference between the target and reference genes is then calculated and a relative expression value determined for all of the samples used. This procedure is then repeated for each of the target genes in a given signature, or characteristic, set and the relative expression ratios for each pair of genes is determined (i.e., a ratio of expression is determined for each target gene versus each of the other genes for which expression is measured, where each gene's absolute expression is determined relative to the reference gene for each compound, or chemical agent, to be screened). The samples are then scored and ranked according to the degree of alteration of the expression profile in the treated samples relative to the control. The overall expression of the set of genes relative to the controls, as modulated by one chemical agent relative to another, is also readily ascertained. Chemical agents having the most effect on a given gene, or set of genes, are considered the most therapeutic or anti-neoplastic, depending on the tissues being studied. […]

Gene 8 = assay: Gene modulating activity in colon cancer cells (RT-PCR RNA expression), Gene 8
Procedure: as §1, §2, §3
(§4) The quantitative difference between the target and reference genes is then calculated and a relative expression value determined for all of the samples used. This procedure is then repeated for each of the target genes in a given signature, or characteristic, set and the relative expression ratios for each pair of genes is determined (i.e., a ratio of expression is determined for each target gene versus each of the other genes for which expression is measured, where each gene's absolute expression is determined relative to the reference gene for each compound, or chemical agent, to be screened). The samples are then scored and ranked according to the degree of alteration of the expression profile in the treated samples relative to the control. The overall expression of the set of genes relative to the controls, as modulated by one chemical agent relative to another, is also readily ascertained. Chemical agents having the most effect on a given gene, or set of genes, are considered the most therapeutic or anti-neoplastic, depending on the tissues being studied. In each case, the agent was present in the cell culture at a concentration of ten micromolar.
(§5) The sets of genes, or signature sets, useful in the methods of the invention disclosed herein represent a set of genes expressed at a higher level in a cancer cell line derived from colon but not expressed at a higher level in normal colon (for example, genes 1, 2, 4-10 for the data of Table 1) or whose expression is higher in normal cells (for example, genes 3 and 11 for the data of Table 1) relative to the cancer cells. […]

Gene 6 = assay: Gene modulating activity in colon cancer cells (RT-PCR RNA expression), Gene 6
Procedure: as §1, §2, §3, §4, §5

Gene 10 = assay: Gene modulating activity in colon cancer cells (RT-PCR RNA expression), Gene 10
Procedure: as §1, §2, §3, §4, §5

Gene 7 = assay: Gene modulating activity in colon cancer cells (RT-PCR RNA expression), Gene 7
Procedure: as §1, §2, §3, §4, §5

Gene 5 = assay: Gene modulating activity in colon cancer cells (RT-PCR RNA expression), Gene 5
Procedure: as §1, §2, §3, §4, §5

Gene 3 = assay: Gene modulating activity in colon cancer cells (RT-PCR RNA expression), Gene 3
Procedure: as §1, §2, §3, §4, §5

Gene 1 = assay: Gene modulating activity in colon cancer cells (RT-PCR RNA expression), Gene 1
Procedure: as §1, §2, §3, §4, §5

Gene 9 = assay: Gene modulating activity in colon cancer cells (RT-PCR RNA expression), Gene 9
Procedure: as §1, §2, §3, §4, §5

Gene 2 = assay: Gene modulating activity in colon cancer cells (RT-PCR RNA expression), Gene 2
Procedure: as §1
For example, Gene 2 was a gene that encodes a kallikrein. Tissue or glandular kallikreins are members of a large and highly conserved family of serine proteases that are central to many physiological processes. They are secreted protein-cleaving enzymes that process for example kininogen (local blood flow, sodium balance, inflammation, cell proliferation), growth factors (EGF, NGF, vasoactive peptide), or other substrates. The prostate antigens hK2 and PSA are members of this family. Diseases in which kallikreins have been implicated include acute pancreatitis, inflammatory arthritis and inflammatory bowel disease, sepsis, enterocolitis, arterial and salt-sensitive hypertension, blood coagulation disorders, scorpion and snake evenomation, infections and cancer. Thus, the chemical agents disclosed herein find use in the treatment and/or prevention of any of these diseases.
as §2, §3
The quantitative difference between the target and reference genes is then calculated and a relative expression value determined for all of the samples used. This procedure is then repeated for each of the target genes in a given signature, or characteristic, set and the relative expression ratios for each pair of genes is determined (i.e., a ratio of expression is determined for each target gene versus each of the other genes for which expression is measured, where each gene's absolute expression is determined relative to the reference gene for each compound, or chemical agent, to be screened). […]

Gene 4 = assay: Gene modulating activity in colon cancer cells (RT-PCR RNA expression), Gene 4
Procedure: as §1, §2, §3, §4, §5

| Structure (SMILES) | Gene 11 Folds of up (+) or down (−) regulatlon (Gene 11) [Folds] | Gene 8 Folds of up (+) or down (−) regulatlon (Gene 8) [Folds] | Gene 6 Folds of up (+) or down (−) regulatlon (Gene 6) [Folds] | Gene 10 Folds of up (+) or down (−) regulatlon (Gene 10) [Folds] | Gene 7 Folds of up (+) or down (−) regulatlon (Gene 7) [Folds] | Gene 5 Folds of up (+) or down (−) regulatlon (Gene 5) [Folds] | Gene 3 Folds of up (+) or down (−) regulatlon (Gene 3) [Folds] | Gene 1 Folds of up (+) or down (−) regulatlon (Gene 1) [Folds] | Gene 9 Folds of up (+) or down (−) regulatlon (Gene 9) [Folds] | Gene 2 Folds of up (+) or down (−) regulatlon (Gene 2) [Folds] | Gene 4 Folds of up (+) or down (−) regulatlon (Gene 4) [Folds] |
| --- | --- | --- | --- | --- | --- | --- | --- | --- | --- | --- | --- |
| O=C(Nc1ccc(-c2ccccc2)cc1)N(Cc1ccccc1)C1CCCC1Sc1ccccc1 (stereo not drawn) [AV-1030] | −4.6 | −2.6 | 1.4 | −2.5 | −1.1 | 2.5 | −1.1 | 2.1 | −2.6 | 3.7 | 1.1 |
| CN(C(=O)C1CCC1)C1CCCCC1Sc1ccccc1 (stereo not drawn) [AV-283] | −34.3 | −1.7 | −3.5 | −3.0 | −3.7 | −1.5 | −4.6 | −2.1 | −3.7 | −1.7 | −1.7 |
| CCCN(C(=O)Nc1ccc(-c2ccccc2)cc1)C1COCC1SC (stereo not drawn) [AV-916] | −3.7 | −3.0 | 1.0 | −8.6 | −1.2 | −1.2 | −8.0 | −2.1 | −6.5 | −1.1 | −1.3 |
| CSC1CCCC1NC(=O)Nc1cccc(Cl)c1 (stereo not drawn) [AV-988] |  | 1.7 | 2.0 | −4.6 | 1.2 | 1.9 | −11.3 | 2.6 | 1.3 | 2.3 | 1.9 |
| CCCN(C(=O)c1ccccc1)C1CCCC1Sc1ccccc1 (stereo not drawn) [AV-221] |  | 1.6 | −1.1 | −6.5 | 90.5 | 1.5 | −3.5 | 64.0 | 1.2 | 1.4 | 1.4 |
| CC(C)CN(C(=O)c1ccccc1)C1CCCC1Sc1ccccc1 (stereo not drawn) [AV-96] | 3.7 | 2.8 | −4.9 | 1.9 | 5.3 | 2.8 | 3.2 | 3.5 | 2.5 | 2.8 | 2.8 |
| COCCN(C(=O)COc1ccccc1)C1CCCC1Sc1ccccc1 (stereo not drawn) [AV-1241] | 27.9 | 2.1 | 2.8 | 13.0 | 26.0 | 1.2 | 29.9 | 1.9 | 9.2 | 1.7 | 2.0 |

From patent US6548539B1, “Agents for regulation of colon cancer gene expression” (Avalon Pharmaceuticals, priority 2001, dated 2003)
